The values below are quoted from earlier work in patent US11195597B2, “Method and device for calculating acid dissociation constant, and program” (FUJITSU LIMITED, priority 2015, dated 2021).

Molecules are shown by their SMILES.

The conditions of this data set: known measured value; dissociation point circled in the structure.
In general, pKa refers to the negative logarithm of the acid dissociation constant. Regarding `CC(Cc1cnc[nH]1)C(=O)O.N` (stereo not drawn) [Number 43], the pKa is listed as 9.17.
Consider `c1ncc2[nH]cnc2n1` [Number 123], for which the pKa was 2.5.
Regarding `Nc1ccc2ccccc2c1` [Number 92, 2-naphthalamine], the pKa was 4.16.
Turning to `N#Cc1cccnc1` [Number 98, 3-cyanopyridine], the pKa is 1.4.
Turning to `O=C(O)C1CCCN1` (stereo not drawn) [Number 67], the pKa was 10.6.
Consider `c1ccc(Nc2ccccc2)cc1` [Number 108], for which the pKa is reported as 0.78.
For the compound `CC(CCCNC(N)N)C(=O)O` (stereo not drawn) [Number 11], the pKa was 12.48.
For the compound `CC(CC(=O)O)C(=O)O.N` (stereo not drawn) [Number 13], the pKa is recorded as 9.82.
As to `Cc1cccnc1` [Number 97], the pKa is reported as 5.7.
With `C=CCN(C)CC=C` [Number 25], the pKa is reported as 8.79.
As to `CC(C)C(=O)O.N` [Number 5], the pKa is 9.69.
With `NCCCCC(N)C(=O)O` (stereo not drawn) [Number 48], the pKa is listed as 10.53.
Regarding `CC(C)C(N)C(=O)O` (stereo not drawn) [Number 84], the pKa was 9.62.
With `C[C@@H](O)[C@H](N)C(=O)O` [Number 75, threonine], the pKa is 9.1.
Consider `CCC(C)C(C)C(=O)O.N` (stereo not drawn) [Number 44], for which the pKa was 9.68.
Take `COc1cccnc1` [Number 96, 3-methoxypyridine]: the pKa was 4.9.
Consider `NCCCc1ccccc1` [Number 63], for which the pKa is recorded as 10.2.
Regarding `CCNCc1ccccc1` [Number 15], the pKa is listed as 9.68.
Take `N#Cc1ccncc1` [Number 103, 4-cyanopyridine]: the pKa was 1.9.
For the compound `c1ccc2c(c1)CCCN2` [Number 132, tetrahydroquinoline], the pKa is recorded as 5.
In the case of `O=C(c1ccccc1)N1CCNCC1` [Number 52], the pKa is on record as 7.78.
As to `CCc1ccccc1.N` [Number 14], the pKa is 9.34.
As to `CC(CC(N)=O)C(=O)O.N` (stereo not drawn) [Number 12], the pKa is 8.8.
Regarding `c1ccc(-c2cccnc2)cc1` [Number 100, 3-phenylpyridine], the pKa is recorded as 4.8.
For the compound `CCCCN(C)C` [Number 32], the pKa is on record as 10.02.
Turning to `CC(C)CNCC(C)C` [Number 28, di-isobutylamine], the pKa is 10.5.
Consider `CCCCN(CCCC)CCCC` [Number 76, tri-n-butylamine], for which the pKa is 10.89.
As for `O=[N+]([O-])c1ccccn1` [Number 94, 2-nitropyridine], the pKa is listed as −2.6.
In the case of `CC(CCCCN)C(=O)O.N` (stereo not drawn) [Number 47], the pKa is 8.95.
Turning to `NC(CO)C(=O)O` (stereo not drawn) [Number 72], the pKa is recorded as 9.15.
Consider `c1ccc(-c2ccncc2)cc1` [Number 105, 4-phenylpyridine], for which the pKa is recorded as 5.5.
For `COc1ccncc1` [Number 101, 4-methoxypyridine], the pKa is given as 6.6.
For the compound `N#Cc1ccccn1` [Number 93, 2-cyanopyridine], the pKa is reported as −0.3.
Consider `c1ccc2[nH]cnc2c1` [Number 112], for which the pKa is reported as 16.4.
For the compound `C=CCNCC=C` [Number 24], the pKa is 9.29.
As to `CCCN(C)C` [Number 33], the pKa is reported as 9.99.
Take `O=[N+]([O-])c1cccnc1` [Number 99, 3-nitropyridine]: the pKa is on record as 0.6.
Take `NCCCCCc1ccccc1` [Number 60, phenylamylamine]: the pKa is given as 10.49.
Take `CNCc1ccccc1` [Number 16]: the pKa is 9.58.
`CC(CCC(=O)O)C(=O)O.N` (stereo not drawn) [Number 41]: the pKa is 9.67.
Turning to `N[C@@H](Cc1ccccc1)C(=O)O` [Number 59, phenylalanine], the pKa was 9.13.
`c1ccc2cc3ncccc3cc2c1` [Number 113]: the pKa is listed as 5.05.
Turning to `CC(CCCNC(N)N)C(=O)O.N` (stereo not drawn) [Number 10], the pKa is listed as 9.04.
As for `CCCNCCC` [Number 22], the pKa is listed as 11.
Take `CCC(C)NC(C)CC` (stereo not drawn) [Number 23, di-sec-butylamine]: the pKa is on record as 11.01.
As for `CC1CCCCC1.N` [Number 17], the pKa is on record as 10.64.
As to `c1ncc2[nH]cnc2n1` [Number 124], the pKa is 8.9.
Turning to `O=[N+]([O-])c1ccncc1` [Number 104, 4-nitropyridine], the pKa was 1.6.
`CC(C)CN(C)C` [Number 35]: the pKa is listed as 10.52.
Regarding `c1ccc2cnccc2c1` [Number 120, isoquinoline], the pKa was 5.14.
On to `CN(C)c1ccccc1` [Number 109], for which the pKa is listed as 5.2.
As to `CC(C)(C)CN` [Number 58], the pKa is 10.21.
With `COc1ccccn1` [Number 90, 2-methoxypyridine], the pKa is given as 3.3.
For `c1ccc2c(c1)[nH]c1ccccc12` [Number 114], the pKa is listed as 19.9.
In the case of `NCCCCc1ccccc1` [Number 61], the pKa was 10.4.
Regarding `NC(Cc1c[nH]c2ccccc12)C(=O)O` (stereo not drawn) [Number 82], the pKa is 9.39.
Consider `CNC1CCCCC1` [Number 18], for which the pKa is reported as 10.49.
